Measurements as given in patent publication US8614230B2, “Derivatives of the aminated hydroxyquinoline class for treating cancers” (Biopharmed, priority 2007, dated 2013).
Like-named read-outs stand apart in the source and are kept apart here.

Assays:
U87/GFP cells [1] = test: Antiproliferative effect on U87/GFP cells (flash cytometry); format: cell-based, human; settings: for inhibition at 10 µM / inhibition at 2 µM: read-out: Antiproliferative effect on U87/GFP cells: percentage inhibition
Description: For the U-87/GFP cells, the control of cell proliferation and migration in the presence of the compounds (I) of the invention is performed via a colorimetric method (MTS) and is performed according to known standard protocols. The methodologies implemented use flash cytometry (Trophos S.A., Marseilles, France). The flash cytometry technique involves fluorescence, which consists of irradiating a compound at a set wavelength and of recording the fluorescence emitted at another wavelength. This technique is performed with a flash cytometer and adapted for 96-well test plates. The excitation and emission wavelengths in the context of use of this fluorescence are located in the 485-495 nm range. The measured fluorescence expresses the amount of cells surviving after treatment with the compounds of the invention. The publications by Luby-Phelps K. et al., J. Histochemistry and Cytometry, 2003, 51, 271-274 and Modarai B. et al., Circulation, 2005, 111, 2645-2653 may be mentioned by way of reference for the above methods.
The cells of the U87/GFP lines are cultured in 96-well plates according to a standard methodology described by Bajetto et al., Neurochemistry International, 2006, 43, 31-38 in the presence of different concentrations of the compounds of the invention.
The cell proliferation is determined and quantified according to standard methods known to those skilled in the art. A 100% proliferation is attributed to the untreated cells and a percentage less than 100% is obtained when the same cells are treated with the compounds of the invention.
(§1) The cell proliferation and migration are determined by imaging using a flash cytometer (Trophos S.A., Marseilles, France), and the calculations are performed using the “Metamorph 4.6” imaging signal processing software (Molecular Devices, USA), the use of which, which is known in the field, makes it possible to determine the above two effects independently of each other.

KB cells = test: Cytotoxicity / cell viability on KB cells (colony-forming assay); format: cell-based, human; settings: for Cytotoxicity on KB cells (percentage inhibition of cell viability): relative to reference without compound
Description: Cancerous KB cells are also considered, to determine the cell viability (or survival rate). This cell viability is determined according to the teaching of Nicholson K. M. et al., British Journal of Cancer, 1999, 81, 423-430.
KB cells are human carcinoma cell lines, KB-3-1. These cells are maintained in a culture medium, “Dulbecco's modified Eagle's medium” (DMEM—Sigma), which contains 0.11 g/l of sodium pyruvate and 4.5 g/l of glucose, supplemented with 10% (v/v) fetal calf serum, penicillin (32 μg/ml) and streptomycin (50 μg/ml). The cells are cultured as monolayers and are incubated at 37° C. in a humid atmosphere (95% air/5% CO2).
The preceding KB cells are then incubated in 6- or 96-well plates in the presence of the test compounds of the invention, dissolved in dimethyl sulfoxide (DMSO). The content of surviving cells is measured by the “colony-forming assay” test, in which the cells are redistributed at a density of 100 to 300 cells per well in 24-well plates, for a period of 8 days, and are then stained with Leishman's reagent (0.2% in methanol). The colonies of more than 50 cells are counted visually under a microscope, the survival rate being expressed on the colonies formed in the presence of the compounds of the invention relative to cell colonies not treated with said compounds. The determination of the IC50 values (concentration of compounds in the reaction medium for which 50% of the tested tumor cells survived the treatment) enables comparison of the efficacy of these compounds.

U87/GFP cells [2] = test: Antimigratory effect on U87/GFP cells (scratch technique); format: cell-based, human
Description: The determination of the antimigratory activity of the compounds (I) of the invention on these same cell lines, cultured in MEM medium (Minimum Essential Medium) is performed via the “scratch” technique that consists in scratching a cell lawn using a micropipette cone. By comparison with these same cells not containing the compounds of the invention, the antimigratory effect is determined. A 100% migration is attributed to the untreated cells, whereas, as a function of the concentration of the compounds (I) of the invention, total stoppage of migration is determined by observation of the “scratch” remaining unfilled by the cell migration, by means of computer software.
as §1

mice = settings: comparison value for anticancer drugs; cited from earlier work
[3] = Homo sapiens, KB, approximate value given in the description, read-out: cytotoxic activity IC50 on KB cells
[4] = Homo sapiens, KB, first value of two experiments performed in parallel, read-out: Cytotoxicity on KB cells (IC50)
[5] = Homo sapiens, KB, second value of two experiments performed in parallel, read-out: Cytotoxicity on KB cells (IC50)
[6] = concentration giving 50% inhibition of proliferation
[7] = first value of two experiments performed in parallel, read-out: Cytotoxicity on KB cells (IC50)
[8] = second value of two experiments performed in parallel, read-out: Cytotoxicity on KB cells (IC50)
[9] = Homo sapiens, concentration giving 50% inhibition of proliferation
[10] = concentration giving 80% inhibition of migration

Compound | IC50 (KB cells; [4]) [nM] | IC50 (KB cells; [5]) [nM] | Cytotoxicity on KB cells (percentage inhibition of cell viability) (KB cells; at 1 μM) [% at 1 μM] | IC50 (KB cells; [7]) [nM] | IC50 (KB cells; [8]) [nM] | other results
Oc1ccc(CN2CCCNCCN(Cc3ccc(CN4CCCNCCNCCCNCC4)cc3)CCCNCC2)c2cccnc12 [I7, 5-((8-(4-((1,4,8,11-tetraazacyclotetradecane-1-yl)methyl)benzyl)-1,4,8,11-tetraazacyclotetradecan-1-yl)methyl)quinolin-8-ol] | 122 | 303 | 93 |  |  | Antiproliferative effect on U87/GFP cells: concentration at which activity is observed (U87/GFP cells [1]; percentage not given): 2 µM; IC50 (KB cells; [3]): ~100 nM
Oc1ccc(CN2CCCNCCNCCCNCC2)c2cccnc12 [I4, 5-((1,4,8,11-tetraazacyclotetradecane-1-yl)methyl)quinolin-8-ol] |  |  | 27 |  |  | 
CC(C)(C)OC(=O)N(Cc1ccccc1)Cc1ccc(O)c2ncccc12 [I38] |  |  |  | 900 | 1100 | Antiproliferative effect on U87/GFP cells: percentage inhibition (U87/GFP cells [1]; at 5-10 μM): 50%; IC50 (U87/GFP cells [1]; [6]): 5 to 10 µM
Cn1nnc2c(C(N)=O)ncn2c1=O [Temodal ®, reference compound] |  |  |  |  |  | inhibition at 10 µM (U87/GFP cells [1]; Homo sapiens): 50%; IC50 (U87/GFP cells [1]; [9]): 10 µM; inhibition at 10 µM (U87/GFP cells [2]; Homo sapiens, at 10 μM, read-out: Antimigratory effect on U87/GFP cells: percentage inhibition): 50%; IC50 (U87/GFP cells [2]; Homo sapiens, concentration giving 50% inhibition of migration): 10 µM
CC(C)(C)OC(=O)N1CCCN(Cc2ccc(O)c3ncccc23)CCCN(C(=O)OC(C)(C)C)CCN(C(=O)OC(C)(C)C)CCC1 [I2, tri-tert-butyl 12-((8-hydroxyquinolin-5-yl)methyl)-1,4,8,12-tetraazacyclopentadecane-1,4,8-tricarboxylate] |  |  | 28 |  |  | 
Cc1ccc(CNCc2ccc(O)c3ncccc23)cc1 [I16, 5-((4-methylbenzylamino)methyl)quinolin-8-ol] | 11000 | 10000 |  |  |  | inhibition at 2 µM (U87/GFP cells [1]; Homo sapiens): 80%; IC50 (U87/GFP cells [1]; concentration giving 80% inhibition of proliferation): 2 µM; inhibition at 2 µM (U87/GFP cells [2]; Homo sapiens, at 2 μM, read-out: Antimigratory effect on U87/GFP cells: percentage inhibition): 80%; IC50 (U87/GFP cells [2]; [10]): 2 µM; Cytotoxicity on KB cells (percentage inhibition of cell viability) (KB cells; at 2 μM): 50% at 2 μM
Oc1ccc(NCc2cccc3ccccc23)c2cccnc12 [I17, 5-(naphthalen-1-ylmethylamino)quinolin-8-ol] | 1000 | 950 |  |  |  | 
CC(C)(C)OC(=O)N(Cc1ccc(C(F)(F)F)cc1)Cc1ccc(O)c2ncccc12 [I37] |  |  |  | 8000 | 9000 | Antiproliferative effect on U87/GFP cells: percentage inhibition (U87/GFP cells [1]; at 5-10 μM): 50%; IC50 (U87/GFP cells [1]; [6]): 5 to 10 µM
CC(NCc1ccc(O)c2ncccc12)c1ccccc1 (stereo not shown) [I33] |  |  |  | 1000 | 1100 | Antiproliferative effect on U87/GFP cells: percentage inhibition (U87/GFP cells [1]; at 0.5 μM): 50%; IC50 (U87/GFP cells [1]; [6]): 0.5 µM
CC(C)(C)OC(=O)N1CCCN(C(=O)OC(C)(C)C)CCN(C(=O)OC(C)(C)C)CCCNC(Cc2ccc(O)c3ncccc23)CC1 (stereo not shown) [I3, tri-tert-butyl 11-((8-hydroxyquinolin-5-yl)methyl)-1,4,8,12-tetraazacyclopentadecane-1,4,8-tricarboxylate] |  |  | 15 |  |  | 
CC(=O)O[C@H]1C(=O)[C@@]2(C)[C@H]([C@H](OC(=O)c3ccccc3)[C@]3(O)C[C@H](OC(=O)[C@H](O)[C@@H](NC(=O)c4ccccc4)c4ccccc4)C(C)=C1C3(C)C)[C@]1(OC(C)=O)CO[C@@H]1C[C@@H]2O [Taxol] |  |  |  |  |  | LD50 (mice): about 10 mg/kg
CC(C)(C)OC(=O)N1CCCN(C(=O)OC(C)(C)C)CCN(Cc2ccc(O)c3ncccc23)CCCN(Cc2ccc(O)c3ncccc23)CC1 [I9, di-tert-butyl 4,8-bis((8-hydroxyquinolin-5-yl)methyl)-1,4,8,11-tetraazacyclotetradecane-1,11-dicarboxylate] | 398 | 639 | 77 |  |  | IC50 (KB cells; [3]): ~400 nM
Oc1ccc(CN(Cc2ccccc2)Cc2ccc(O)c3ncccc23)c2cccnc12 [I12] |  |  | 93 | 1.5 | 5 | Antiproliferative effect on U87/GFP cells: percentage inhibition (U87/GFP cells [1]; at 0.5 μM): 30%; IC50 (U87/GFP cells [1]; concentration giving 30% inhibition of proliferation): 0.5 µM; Antimigratory effect on U87/GFP cells: percentage inhibition (U87/GFP cells [2]; at 2 μM): 80%; IC50 (U87/GFP cells [2]; [10]): 2 µM
Oc1ccc(CNCc2cccc(C(F)(F)F)c2)c2cccnc12 [I35] |  |  |  | 200 | 220 | 
Oc1ccc(CNCc2ccc(C(F)(F)F)cc2)c2cccnc12 [I34] |  |  |  | 10000 | 9000 | Antiproliferative effect on U87/GFP cells: percentage inhibition (U87/GFP cells [1]; at 5-10 μM): 50%; IC50 (U87/GFP cells [1]; [6]): 5 to 10 µM
Oc1ccc(N(Cc2cccc3ccccc23)c2ccc(O)c3ncccc23)c2cccnc12 [I18, 5,5′-(naphthalen-1-ylmethylazanediyl)diquinolin-8-ol] | 5 | 4.5 |  |  |  | inhibition at 2 µM (U87/GFP cells [1]; Homo sapiens): 50%; IC50 (U87/GFP cells [1]; [9]): 2 µM
Oc1ccc(CN2CCN(Cc3ccc(O)c4ncccc34)CC2)c2cccnc12 [I8, 5,5′-(piperazine-1,4-diylbis (methylene))diquinolin-8-ol] | 43 | 32 | 94 |  |  | 
CC(C)(C)OC(=O)N(Cc1cccc(C(F)(F)F)c1)Cc1ccc(O)c2ncccc12 [I36] |  |  |  | 1000 | 1100 | Antiproliferative effect on U87/GFP cells: percentage inhibition (U87/GFP cells [1]; at 5-10 μM): 50%; IC50 (U87/GFP cells [1]; [6]): 5 to 10 µM
Oc1ccc(CNCc2ccccc2)c2cccnc12 [I13, 5-((benzylamino)methyl)quinolin-8-ol] | > 1000 | 1300 | 90 |  |  | inhibition at 10 µM (U87/GFP cells [1]; Homo sapiens): 50%; IC50 (U87/GFP cells [1]; [9]): 10 µM
